Reference: patent publication US4360509A, “Vivo radioassay process” (priority 1979, dated 1982)
Entries after “also recorded” stand apart in the source; their conditions may differ.

Legend:
[1] = test system: bacterial abscesses; test: Gamma camera scintigraphy of bacterial abscesses in goats; assay type: in vivo; conditions: goat; for abscess visibility by gamma camera, adjoining bacterial abscesses of 2 months and three days old: about 1 mCi, imaged the next day
Description: Bacterial abscesses were also evoked in goats in accordance with the following procedure: 4 Droppings (faeces) of goats were stirred in 10 ml phosphate-buffered, saline solution (pH 7.2), emulsified in 10 ml mineral oil (Freund's complete adjuvant), and injected subcutaneously into four goats (2.5 ml per goat) at the left flank of the abdomen. Within a day the goats developed fever (temperature rose from 39.3° to over 40° C.) and a firm abscess with a diameter of about 10 cm. appeared.
In order to prepare granulocyte suspensions blood was sampled from a goat via the neck vein, and anticoagulated by the addition of heparin. The granulocytes were purified by a known sedimentation technique. The separation fluid consisted of: 10 Parts of Isopaque (sodium metrizoate) (32.8%) mixed with 24 parts Ficoll (Pharmacia) 8% (in H2 O). The density was: 1.077 g/ml. Equal parts of anticoagulated blood and 0.9% NaCl were mixed and 20 ml of the mixture was layered over 10 ml of Isopaque-Ficoll in a centrifuge tube. The mixture was centrifuged at 1000 g for 15 minutes. After centrifugation the mononuclear cells (monocytes and lymphocytes) were found as a narrow band at the interface between the plasma layer and the separation fluid. The layer above the erythrocyte sediment, also containing granulocytes, was removed down to 1 to 2 mm above the erythrocyte meniscus. The erythrocyte layer was mixed with a 3 to 5 fold volume of phosphate-buffered saline solution and centrifuged for 7 minutes at 1200 g. The supernatant was pipetted-off down to the erythrocyte meniscus. The erythrocytes were lysed by addition of 30 ml 155 mM NH4 Cl solution (also containing 10 mM KHCO3 0.1 mM EDTA) pH 7.4, mixing and 15 minutes storage at 4° C. After centrifugation (400 g) the granulocytes were resuspended in NH4 Cl solution (15 ml) 0.5% albumin and stored 15 minutes at 4° C. After microscopic control the cells were washed in PBS containing 0.5% albumin and were consecutively suspended in 5 ml PBS containing 0.5% albumin. In that condition the cells are ready for indium-111-oxinate labeling.
Indium-111-oxinate labeled granulocytes were made by the Thakur procedure. In this preparation 2×50 ml conical centrifuge tubes are sterilized at 120° C. for 2 hours. In-111 Cl3 (Byk-Mallinckrodt CIL B.V.) 0.1 M HCl solution (5 mCi/ml) is used. 1 ml H2 O is added for injection, as are 50 μl oxine (BDH or Merck) solution (1 mg/ml in ethanol), and 200 μl acetate buffer 0.3 M pH 5.6 after a short wait of about a minute. The In-111-oxinate is extracted into about 2 ml CHCl3, and is evaporated to dryness by heating in a water bath. The material is dissolved in 100 μl absolute ethanol and again evaporated and dissolved in 50 μl absolute ethanol. […]

[2] = Tissue distribution of In-111 in goats with bacterial abscesses (radioactivity per gram of tissue, scintillation counter); conditions: goat
Description: The distribution of In-111 was determined in the different organs and tissues of three goats. One goat was injected with In-111-oxinate labeled autologous granulocytes, one with plain In-111-oxinate and one with plain In-111-chloride. The injections with the isotope formulations took place 2 days before the animals were sacrificed and dissected. Pieces of abscess, organs and tissues were sampled, weighed and the radioactivity was measured in a scintillation counter. The radioactivities per gram of tissue were determined.
The tissue distribution of In-111 in the goat was determined to show the distribution of radioactivity among the organs.
In order to illustrate the process of the invention a goat with adjoining bacterial abscesses of 2 months and three days old was injected with In-111-oxinate (ca. 1 mCi). The goat was imaged by gamma camera the next day. […] The goat was sacrificed and the distribution of radioactivity between the different tissues and organs determined.
The goat that was intravenously injected with In-111-chloride was dissected two days after the injection, and the distribution of radioactivity among the different tissues and organs determined.

[3] = Description: The clearance of In-111 from the blood of the goats was followed after intravenous injection of In-111 in three different formulations, namely In-111-chloride, In-111-oxinate and In-111-oxinate labeled granulocytes, respectively, in order to determine the biological half life for each of these different formulations. After injection, 10 ml blood samples were taken at intervals. All blood samples were subjected to differential centrifugation in order to determine whether the radioactivity was localized in the plasma, platelets, red cell fraction or leukocytes. Platelet rich plasma (PRP) was prepared by centrifugation of heparinised blood at 200 g during 15 minutes. After sampling of the PRP (1 ml) the residue was centrifuged at 1600 g for 10 minutes. 1 ml samples were taken from the plasma layer (platelet poor plasma=PPP), from the interface between plasma and red cells (leukocytes) and from the red cell fraction. The radioactivities were determined and clearance was determined corrected for physical decay.
The clearance of In-111 from the blood of goats was followed after intravenous injection of In-111 in three different goats and formulations,namely, In-111-chloride, In-111-oxinate and In-111-oxinate labeled granulocytes, respectively, in order to determine the biological half-life of In-111.
The clearance of In-111 in a goat which was injected with In-111-oxinate labeled granulocytes was also studied.

[4] = test system: blood cells; test: Washing of blood cells with PBS (binding of radioactivity to blood cells after injection); conditions: goat blood cells
[5] = intravenous, two days after the injection

[Cl][111In]([Cl])[Cl] [In-111-chloride]
abscess visibility by gamma camera, adjoining bacterial abscesses of 2 months and three days old [1]: well-visible spot | abscess visibility by gamma camera, bacterial abscesses of 2 months and three days old, subcutaneous injection ([1]; ca. 1 mCi, accidental subcutaneous injection, twenty-four hours later): distinct, well-visible spot | spread of radioactivity after subcutaneous injection ([1]; ca. 1 mCi, subcutaneous): spread via the peripheral vascular system, not via the neck vein to the heart and the lungs | accumulation of In-111 in the cell fraction of the blood (tissue distribution study) [2]: only a small amount of In-111 accumulated in the blood cells | radioactivity in pus of the old and new abscesses [2]: hardly any radioactivity | radioactivity in the kidney ([2]; 2 days after injection): strongly labeled | radioactivity of inflamed lymph node relative to a non-inflamed one ([2]; 2 days after injection): three | accumulation of In-111 in fat, urine and gall [2, 5]: no significant accumulation of In-111 | accumulation of radioactivity in intraperitoneally penetrated part of the abscess [2, 5]: slightly higher accumulation of radioactivity, but the accumulation was less than in the old abscess in the In-111-oxinate study | accumulation of radioactivity in the spleen and liver [2, 5]: moderate accumulations of radioactivity | distribution of blood radioactivity between plasma and cells [2, 5]: Most of the radioactivity was in the plasma, not in the cells | labeling of the blood [2, 5]: very moderately labeled | radioactivity in tissue of old and new abscesses [2, 5]: moderate radioactivity, somewhat more than lymph node and muscle, far less than ovarium, uterus, lung and kidney | clearance of indium from blood, four days ([3]; goat, intravenous): almost disappeared in four days | clearance of indium from blood, level within two days ([3]; goat, intravenous): decline to a very low level of radioactivity within two days | binding of radioactivity to blood cells on washing with PBS [4]: could be easily washed out; also recorded: could be washed out by PBS

[111In+3].[O-]c1cccc2cccnc12.[O-]c1cccc2cccnc12.[O-]c1cccc2cccnc12 [In-111-oxinate]
abscess visibility by gamma camera, adjoining bacterial abscesses of 2 months and three days old [1]: clear spot | accumulation of In-111 in the cell fraction of the blood (tissue distribution study) [2]: strong accumulation of In-111 in the cell fraction of the blood, almost as much as the radioactivity per gram of tissue of the spleen | accumulation of radioactivity in fat, muscle, marrow from the femur, gall, faeces, pancreas and urine [2]: no significant accumulation of radioactivity | accumulation of radioactivity in heart muscle [2]: moderate accumulation of In-111 | radioactivity in pus of the old and new abscesses [2]: little radioactivity | accumulation of In-111 in tissue of the old abscess ([2]; 2 months old abscess): high accumulation of In-111, similar to the kidney and ovarium | radioactivity of inflamed lymph node relative to a non-inflamed one ([2]; 2 days after injection): two | radioactivity accumulation in tissue of the new abscess ([2]; three days old abscess): moderate radioactivity accumulation more than, for example, the lymph node and muscles, but far less than ovarium, uterus, lung, kidney, spleen and blood | course of radioactivity in blood after injection (another goat) ([3]; another goat): gradual decrease of radioactivity immediately after the goat was injected | preference of the cells for the agent (another experiment in another goat) ([3]; another goat): strong preference of the cells | preference of indium-111 for white cells ([3]; another goat, sample had about an equal amount of plasma): no preference of indium-111 for white cells | time of optimal accumulation in the cell fraction of the blood ([3]; goat, after injection): five | In-111 activity level in blood after two days ([3]; goat, intravenous): very slow decline of the activity level | In-111 level in the blood, first two days ([3]; goat, intravenous): gradual increase of In-111 in the blood for two days | radioactivity in the blood one week later ([3]; goat, intravenous): still a significant amount of radioactivity in the blood | preference of In-111 for the cell fraction of the blood ([3]; goat, intravenous, clearance study): clear preference of In-111 to accumulate in the cell fraction of the blood | binding of radioactivity to blood cells on washing with PBS [4]: firmly bound
